As a reminder, the EC50 is the concentration needed to bring the measured effect to its halfway point.

“Also recorded” adds a separate entry of the source. Where two headings read alike, the source gives them in different places.

Results on 2 compounds are retold here after patent US20090012088A1 (priority 2005, published 2009).

For assay [1], the system named is primary dopaminergic neurons from the midbrain of embryonic rats. Briefly: Protection of primary dopaminergic neurons from rotenone (TH/MAP2 immunocytochemistry). Format: cell-based, rat. To be noted: 100 nM rotenone, 48 h, % TH+ of MAP2+ cells. The method, then:
With in vitro PARG inhibition, cell permeability, a structure-activity-relationship, and protection in cell culture models established, the protective properties of PIP-1 are evaluated in cultures of primary dopaminergic neurons taken from the midbrain of embryonic rats. After isolation, these neurons are treated with 100 nM rotenone and a range of PIP-1 concentrations. Cells are stained with antibodies to MAP2 and tyrosine hydroxylase (TH) to determine the proportion of dopaminergic neurons remaining.
Preparation of Primary Mesencephalic Cultures: Primary Midbrain Cultures are prepared using a modified version of a previously described protocol^2. All of the procedures involving animal handling are reviewed and approved by the Purdue Animal Care and Use Committee. […]
Treatment of primary cultures with rotenone and PIP-1: AraC-treated primary cultures are incubated in fresh media for 72 h. […] After 48 h, the cells are analyzed immunocytochemically as described below.
Immunocytochemistry: Primary cells are fixed in 4% (w/v) paraformaldehyde in PBS for 30 min. […] MAP2- and TH-immunoreactive primary neurons are counted in 10 randomly chosen observation fields for each experimental condition using a Nikon TE2000-U inverted fluorescence microscope at a total magnification of 200×. The data are expressed as the percentage of MAP2-positive neurons that are also TH-positive. […]

The subject of assay [2] is neuronally differentiated SK-N-SH cells. Briefly: Protection from rotenone induced toxicity in neuronally differentiated SK-N-SH cells. Format: cell-based. To be noted: Homo sapiens, 10 μM rotenone. On the procedure: (§1) In vivo MPTP is metabolized to its active form, the 1-methyl-4-phenylpyridinium ion (MPP^+), and MPP^+ has proven very useful in a variety of cell culture models of PD. To determine the protective effect of PIP-1 on cells subjected to MPP^+ insult, PC-12 (differentiated as above) and SK-N-SH (differentiated with retinoic acid for 12 days) cells are treated with 10 μM MPP^+ and a range of PIP-1 concentrations, and cell death is assessed by propidium iodide staining and flow cytometry. […] As shown in FIGS. 20A and 20B, PIP-1 also protects differentiated PC-12 and SK-N-SH cells from rotenone-induced toxicity as well.
(§2) Cell culture conditions: HL-60 and SK-N-SH cells are grown in RPMI 1640 media supplemented with 10% FBS and PC-12 cells are grown in RPMI 1640 media supplemented with 10% HS and 5% FBS. All cell lines are incubated at 37° C. in a 5% CO2, 95% air atmosphere. HL-60 cells are split every two to three days as needed and SK-N-SH cells are split when they reach approximately 90% confluency at a 1:6 ratio. […]
(§3) Protection of Rotenone and MPP^+ induced toxicity in PC-12 and SK-N-SH cells: SK-N-SH and PC-12 cells are neuronally differentiated as described above. […] The cells are then washed in PBS and the viability is determined by adding propidium iodide to 1 μg/mL and measuring the fluorescent intensity of each cell by flow cytometry.

The test system of the next assay is U-937 cells. The assay is described as follows: Protection against H2O2 treatment of U-937 cells (cell survival). Format: cell-based. To be noted: FIG. 13. The method, then:
We have made multiple derivatives of PIP-1; these compounds are shown below in Table 2 and in FIG. 11 and labeled Structures 1-39. The neuroprotective effects of structures 1-26 were tested in the cellular assay and compared to the neuroprotective effect of PIP-1 (FIG. 13).
PIP-1 and structures 1-26 were screened for protection against H2O2 treatment of U-937 cells FIG. 13.

The test system of assay [3] is neuronally differentiated PC-12 cells. Briefly: Protection from MPP+ induced toxicity in neuronally differentiated PC-12 cells. Type of assay: cell-based. To be noted: 10 μM MPP+, read-out: EC50 (IC50) for protection from MPP+ induced cell death. The method, then:
as §1, §2, §3

On to `CN(C)c1cnn(-c2ccccc2)c(=O)c1N` [PIP-1, 4-Amino-5-dimethylamino-2-phenyl-2H-pyridazin-3-one], for which, in assay [1], the “Protection of dopaminergic neurons from rotenone induced cell death” value was “considerable protection; also recorded: protects dopaminergic neurons from rotenone induced cell death”. Moreover, the EC50 in assay [2] is 2.18 µM; in assay [3] (72 h), 1.81 µM; in assay [3] (Rattus norvegicus, PC-12, 72 h) it was about 1.8 µM. In addition, the “Protection of U-937 cells treated with H2O2 (activity compared to PIP-1)” value in the assay on U-937 cells is on record as “activity similar or better than PIP-1”.

With `Nc1c(Cl)cnn(-c2ccccc2)c1=O` [compound 5, 4-Amino-5-chloro-2-phenyl-2H-pyridazin-3-one], the “Protection of dopaminergic neurons from rotenone induced cell death” value in assay [1] is listed as “no protection; also recorded: does not significantly protect”.
